Assay results reported in the Deep4Chem optical property database.
Blank lines part the entries; values can stand above or below the compound they belong to.

Experiment: photoluminescence quantum yield (fraction); solvent given as SMILES

photoluminescence quantum yield (in C1CCCCC1): 0.12
SMILES: COc1ccc(C2=C(c3ccc(OC)cc3)C(C)(C)c3cc(OC)ccc32)cc1

photoluminescence quantum yield (in CC#N): 0.65
photoluminescence quantum yield (in CCCCCC): 0.73
photoluminescence quantum yield (in CCOC(C)=O): 0.59
photoluminescence quantum yield (in CO): 0.59
photoluminescence quantum yield (in ClCCl): 0.61
SMILES: CCc1c(C)c2n(c1C)[B-](F)(F)[N+]1=C(NCc3ccc(OC)cc3)C=CC1=C2C

photoluminescence quantum yield (in CCO): 0.842
SMILES: Cc1c(COC(=O)c2ccc(I)cc2)n2c(OCC(=O)c3ccc(I)cc3)c(C)c(=O)n2c1=O

photoluminescence quantum yield (in CC#N): 0.41
SMILES: CCOC(=O)c1c2c3c(ccc([N+](=O)[O-])c3c3cc4ccccc4cc13)N(C)C2=O

photoluminescence quantum yield (in CC#N): 0.46
photoluminescence quantum yield (in ClCCl): 0.44
SMILES: F[B-]1(F)n2c(-c3cccs3)cc(-c3ccccc3)c2N=C2C(c3ccccc3)=CC(c3cccs3)=[N+]21

photoluminescence quantum yield (in O): 0.025
SMILES: COc1ccc(OC)c(C2=C3C=CC(=[N+](C)C)C=C3[Si](C)(C)c3cc(N(C)C)ccc32)c1

photoluminescence quantum yield (in ClC(Cl)Cl): 0.86
SMILES: F[B-]1(F)n2c(ccc2-c2nc3ccccc3s2)C(c2ccccc2)=C2C=CC(c3nc4ccccc4s3)=[N+]21

photoluminescence quantum yield (in CCO): 0.014
photoluminescence quantum yield (in CS(C)=O): 0.025
photoluminescence quantum yield (in O): 0.027
SMILES: CC1(C)C(/C=C/c2cc3ccc(O)cc3oc2=O)=[N+](CCCS(=O)(=O)[O-])c2ccc3c(S(=O)(=O)O)cc(S(=O)(=O)O)cc3c21

photoluminescence quantum yield (in ClCCl): 0.18
SMILES: c1ccc(-c2ccc(-c3cc(-c4ccccn4)nc(-c4ccccn4)c3)cc2)cc1

photoluminescence quantum yield (in CCCCCC): 0.37
SMILES: CC(C)[Si](C#Cc1ccc(C#C[Si](C(C)C)(C(C)C)C(C)C)c2nc3c(ccc4cc5ccccc5cc43)nc12)(C(C)C)C(C)C

photoluminescence quantum yield (in ClCCl): 0.6
SMILES: CCCCn1c2c(-c3ccc(N(c4ccccc4)c4ccccc4)cc3)cc(C#N)cc2c2cc(C#N)cc(-c3ccc(N(c4ccccc4)c4ccccc4)cc3)c21

photoluminescence quantum yield (in ClCCl): 0.38
SMILES: CCCCCCN1C(=O)c2cccc3c(-c4ccc(-c5cc(-c6ccc(OC)cc6)n(-c6ccccc6)n5)s4)ccc(c23)C1=O

photoluminescence quantum yield (in ClCCl): 0.7
SMILES: Cn1nc(-c2ccc(C#N)cc2)cc1-c1ccccc1

photoluminescence quantum yield (in CC#N): 0.58
photoluminescence quantum yield (in CCO): 0.66
photoluminescence quantum yield (in CN(C)C=O): 0.54
photoluminescence quantum yield (in O): 0.36
SMILES: CCN(CC)c1ccc2c(-c3ccc(S(=O)(=O)O)cc3S(=O)(=O)[O-])c3ccc(=[N+](CC)CC)cc-3oc2c1

photoluminescence quantum yield (in ClCCl): 0.21
SMILES: CCCCn1c(-c2ccc(-c3nnc(-c4ccccc4)o3)cc2)nc(-c2ccccc2)c1-c1ccccc1

photoluminescence quantum yield (in C1CCCCC1): 0.014
photoluminescence quantum yield (in CC#N): 0.075
photoluminescence quantum yield (in CN(C)C=O): 0.022
photoluminescence quantum yield (in CO): 0.017
photoluminescence quantum yield (in CS(C)=O): 0.024
photoluminescence quantum yield (in c1ccccc1): 0.052
SMILES: COc1cc(/C=C/C(=O)CC(=O)/C=C/c2ccc(O)c(OC)c2)ccc1O

photoluminescence quantum yield (in C1CCCCC1): 0.926
photoluminescence quantum yield (in CCOC(C)=O): 0.885
photoluminescence quantum yield (in CN(C)C=O): 0.296
photoluminescence quantum yield (in CO): 0.222
photoluminescence quantum yield (in ClCCl): 0.916
SMILES: CCN(CC)c1ccc2c(c1)oc(=O)c1cnc3c(cnn3-c3ccccc3)c12

photoluminescence quantum yield (in C1CCOC1): 0.32
photoluminescence quantum yield (in CS(C)=O): 0.19
photoluminescence quantum yield (in ClCCl): 0.37
SMILES: COc1cc(OC)cc(C2=C3C(C)=C(I)C(C)=[N+]3[B-](F)(F)n3c(/C=C/c4c[nH]c5ccc([N+](=O)[O-])cc45)c(I)c(C)c32)c1

photoluminescence quantum yield (in ClCCl): 0.59
SMILES: CN(C)c1ccc(/C=C/c2cnc3ccccc3n2)cc1

photoluminescence quantum yield (in CO): 0.24
photoluminescence quantum yield (in CS(C)=O): 0.15
photoluminescence quantum yield (in O): 0.07
SMILES: CCCN1/C(=C/C=C(/C=C/C2=[N+](CCC)c3ccccc3C2(C)C)c2ccncc2)C(C)(C)c2ccccc21

photoluminescence quantum yield (in C1CCCCC1): 0.79
SMILES: Cc1cc(C)c(B2c3cc(C(C)(C)C)cc4ccc5ccc6cc(C(C)(C)C)cc2c6c5c34)c(C)c1

photoluminescence quantum yield (in ClCCl): 0.258
SMILES: CCOC(=O)c1ccc(C2CC(c3cccc4ccccc34)=NN2c2ccc(C#N)cc2)cc1 (stereo not given)

photoluminescence quantum yield (in CC#N): 0.34
SMILES: Oc1ccccc1/C=N/c1cc2nc3ccccc3nc2cc1/N=C/c1ccccc1O

photoluminescence quantum yield (in CC#N): 0.37
photoluminescence quantum yield (in CCOC(C)=O): 0.22
photoluminescence quantum yield (in CO): 0.06
SMILES: COC(=O)C[C@H](Cc1c[nH]c2ccccc12)NC(=O)[C@H](CC(=O)N[C@@H](CC1=CCc2ccccc21)C(=O)OC)NC(=O)OC(C)(C)C

photoluminescence quantum yield (in C1CCCCC1): 0.38
photoluminescence quantum yield (in CC#N): 0.16
SMILES: C[Si](C)(C)[Si](C)(C)c1cccc2cc3ccccc3cc12

Further lines, the compound ahead of its results:

SMILES: CCCCCCCCC1(CCCCCCCC)c2cc(-c3ccc([Si](C)(C)C)cc3)ccc2-c2ccc(-c3ccc([Si](C)(C)C)cc3)cc21
photoluminescence quantum yield (in ClC(Cl)Cl): 0.89

SMILES: c1ccc(-c2ccc3c(c2)c2cc(-c4ccccc4)ccc2n3-c2ccc3c(c2)c2cc(-n4c5ccc(-c6ccccc6)cc5c5cc(-c6ccccc6)ccc54)ccc2n3-c2ccc(-c3nc(-c4ccccc4)nc(-c4ccccc4)n3)cc2)cc1
photoluminescence quantum yield (in Cc1ccccc1): 0.74

SMILES: Cc1cscc1-c1cc2c3cc(-c4cscc4C)c4nc(C(F)(F)C(F)(F)C(F)(F)F)nc5c(-c6cscc6C)cc(c6cc(-c7cscc7C)c7nc(C(F)(F)C(F)(F)C(F)(F)F)nc1c7c26)c3c45
photoluminescence quantum yield (in C1CCOC1): 0.33

SMILES: CC(C)(C)c1ccc2c(c1)sc1[n+]2[B-](F)(F)n2c(c3cccc4c(Br)ccc2c43)=N1
photoluminescence quantum yield (in C1CCOC1): 0.63
photoluminescence quantum yield (in CC#N): 0.64
photoluminescence quantum yield (in CCCCCC): 0.68
photoluminescence quantum yield (in Cc1ccccc1): 0.64
photoluminescence quantum yield (in ClCCl): 0.72

SMILES: ClP1(Cl)=N[P@](Cl)(Oc2ccc3ccc4cccc5ccc2c3c45)=N[P@@](Cl)(Oc2ccc3ccc4cccc5ccc2c3c45)=N1
photoluminescence quantum yield (in ClCCl): 0.76

SMILES: N#Cc1ccc(-n2nc(C#N)c(N3CCCC3)n2)cc1
photoluminescence quantum yield (in CC#N): 0.579

SMILES: C(#Cc1ccccc1)C(C#Cc1ccccc1)=Cc1ccc2cc(C=C(C#Cc3ccccc3)C#Cc3ccccc3)ccc2c1
photoluminescence quantum yield (in ClC(Cl)Cl): 0.49

SMILES: Brc1ccc2[nH]c(-c3ccc(-c4ccc(-c5ccc(-c6nc7cc(Br)ccc7[nH]6)cc5)cc4)cc3)nc2c1
photoluminescence quantum yield (in CN(C)C=O): 0.42

SMILES: c1ccc(/C(=C(\c2ccccc2)c2cc(-c3ccc(-c4ccccc4)cc3)ccc2-c2ccc(-c3ccccc3)cc2)c2cc(-c3ccc(-c4ccccc4)cc3)ccc2-c2ccc(-c3ccccc3)cc2)cc1
photoluminescence quantum yield (in C1CCOC1): 0.32

SMILES: CCC1=C(C)C2=Cc3cccn3[B-](F)(F)[N+]2=C1C
photoluminescence quantum yield (in C1CCCCC1): 0.7
photoluminescence quantum yield (in CC(C)=O): 0.65
photoluminescence quantum yield (in CCO): 0.69
photoluminescence quantum yield (in CCOC(C)=O): 0.69
photoluminescence quantum yield (in CO): 0.6
photoluminescence quantum yield (in OCC(F)(F)F): 0.49

SMILES: COc1ccc(-n2nc(C#N)c(N3CCOCC3)n2)cc1
photoluminescence quantum yield (in CC#N): 0.856

SMILES: CCC1=C(C)C2=Cc3cc4c(cc3B(O)N2C1=O)OCO4
photoluminescence quantum yield (in CC#N): 0.57
photoluminescence quantum yield (in CO): 0.3
photoluminescence quantum yield (in CS(C)=O): 0.8
photoluminescence quantum yield (in ClC(Cl)Cl): 0.61

SMILES: CC1=CC(C)=[N+]2C1=C(c1ccccc1)c1c(C)cc(/C=C/c3ccc(N(C)C)cc3)n1[B-]2(F)F
photoluminescence quantum yield (in CCOCC): 0.83

SMILES: CC(C)[Si](C#Cc1ccc(C#C[Si](C(C)C)(C(C)C)C(C)C)c2nc3ccccc3nc12)(C(C)C)C(C)C
photoluminescence quantum yield (in ClCCl): 0.02

SMILES: c1ccc(-c2nc(-c3ccc(N4c5ccccc5C(c5ccccc5)(c5ccccc5)c5ccccc54)cc3)cc(-c3ccccn3)n2)cc1
photoluminescence quantum yield (in O=P(c1ccccc1)(c1ccccc1)c1ccccc1Oc1ccccc1P(=O)(c1ccccc1)c1ccccc1): 0.83

SMILES: C(=C\c1nc2c(c(N3CCOCC3)n1)CCCC2)/c1ccccc1
photoluminescence quantum yield (in ClCCl): 0.023

SMILES: CC(C)(C)c1ccc2c(c1)c1cc(C(C)(C)C)ccc1n2-c1cccc2c1Oc1c(-c3nc(-c4ccccc4)nc(-c4ccccc4)n3)cccc1C2(C)C
photoluminescence quantum yield (in Cc1ccccc1): 0.06

SMILES: CCCCCCCc1cc2c(o1)=CC1=C3c4cc5oc(CCCCCCC)cc5n4[B-](F)(F)[n+]4nnn(c43)[B-](F)(F)[N+]=21
photoluminescence quantum yield (in C1CCOC1): 0.34
photoluminescence quantum yield (in ClCCl): 0.39

SMILES: CN1c2cc3nc4cc(Br)c(Br)cc4nc3cc2N(C)C1(C)C
photoluminescence quantum yield (in CCO): 0.11

SMILES: CCC1=C(C)C2=C(c3cc(C(=O)Cl)cc(C(=O)Cl)c3)c3c(C)c(CC)c(C)n3[B-](F)(F)[N+]2=C1C
photoluminescence quantum yield (in C1CCOC1): 0.61
photoluminescence quantum yield (in CC#N): 0.22
photoluminescence quantum yield (in CN(C)C=O): 0.39
photoluminescence quantum yield (in Cc1ccccc1): 0.57
photoluminescence quantum yield (in ClC(Cl)Cl): 0.53

SMILES: Nc1ccc2c(c1)C(=O)N(C13C[C@H]4C[C@@H](C1)C[C@@H](C3)C4)C2=O
photoluminescence quantum yield (in C1CCCCC1): 0.38
photoluminescence quantum yield (in C1CCOC1): 0.59
photoluminescence quantum yield (in CC#N): 0.62
photoluminescence quantum yield (in CCOC(C)=O): 0.58
photoluminescence quantum yield (in CO): 0.17
photoluminescence quantum yield (in CS(C)=O): 0.8
photoluminescence quantum yield (in Cc1ccccc1): 0.8
photoluminescence quantum yield (in ClCCl): 0.85

SMILES: Nc1cccc2c1C(=O)NC2=O
photoluminescence quantum yield (in C1CCOC1): 0.97
photoluminescence quantum yield (in CCO): 0.74
photoluminescence quantum yield (in CN(C)C=O): 0.66

SMILES: COc1ccccc1-c1nc2c3ccccc3c3ccccc3c2n1-c1ccc(C)cc1
photoluminescence quantum yield (in Cc1ccccc1): 0.284

SMILES: CC1(C)c2ccccc2N(c2ccc3c(c2)c2cc(N4c5ccccc5C(C)(C)c5ccccc54)ccc2c2nc(C#N)c(C#N)nc32)c2ccccc21
photoluminescence quantum yield (in Cc1ccccc1): 0.12
photoluminescence quantum yield (in O=P(c1ccccc1)(c1ccccc1)c1cccc(-c2cc(-n3c4ccccc4c4ccccc43)cc(-n3c4ccccc4c4ccccc43)c2)n1): 0.33

SMILES: CC1=[N+]2C(=C(c3ccc(N4CCOCC4)cc3)c3ccc(C)n3[B-]2(F)F)C=C1
photoluminescence quantum yield (in C1CCCCC1): 0.35
photoluminescence quantum yield (in CC(=O)C(C)(C)C): 0.002
photoluminescence quantum yield (in CC(C)=O): 0.002
photoluminescence quantum yield (in CCCCCC): 0.388
photoluminescence quantum yield (in CCOC(C)=O): 0.008
photoluminescence quantum yield (in CO): 0.005
photoluminescence quantum yield (in Cc1ccccc1): 0.32
photoluminescence quantum yield (in ClC(Cl)Cl): 0.11

SMILES: CCN(CC)c1ccc([N+]2=Cc3ccc4c5c(ccc4c3O[B-]2(c2c(F)c(F)c(F)c(F)c2F)c2c(F)c(F)c(F)c(F)c2F)C=[N+](c2ccc(N(CC)CC)cc2)[B-](c2c(F)c(F)c(F)c(F)c2F)(c2c(F)c(F)c(F)c(F)c2F)O5)cc1
photoluminescence quantum yield (in Cc1ccccc1): 0.33
photoluminescence quantum yield (in ClCCl): 0.1

SMILES: CCCC1(CCC)c2cc(-c3ccc(-c4ccccc4)cc3)ccc2-c2ccc(-c3ccc4c(c3)C(CCC)(CCC)c3cc(-c5ccc(-c6ccccc6)cc5)ccc3-4)cc21
photoluminescence quantum yield (in Cc1ccccc1): 0.92

SMILES: Cc1cc(C)c2nc3c(=O)[nH]c(=O)[nH]c3nc2c1
photoluminescence quantum yield (in CC#N): 0.02

SMILES: CC[C@H](C)COc1ccc(C2=C3C(C)=C(I)C(C)=[N+]3[B-](F)(F)n3c(C)c(I)c(C)c32)cc1
photoluminescence quantum yield (in ClCCl): 0.06
